Legend:
Assay type in all cases: in vivo, Erysiphe graminis
[1] = tested on: powdery mildew in cucumber; experiment: Control of powdery mildew on potted cucumber plants in growth chamber; conditions: for Observed Control (%): cucumber
Procedure: (§1) β Amionbutyric acid and component (b) fungicides were tested against fungi on potted plants, as follows:
(§2) 12-15 seeds were sown in a pot of 0.5 liter in a mixture of ground, sand, and Perlite in a ratio of 1;1;1. After two weeks in a growth chamber the plants were used for experimentation only when the first true leave appeared. Spraying was done until runoff; waiting in the growth chamber for 24 hours. Inoculations of the fungus was done via dusting the plants with plants already infected. The then dusted plants were incubated 7 to 10 days at 20° in a growth chamber with an exposure of 12 hours to light at an intensity of 7000-800 lucs. The results of the fungul growth was done via visual estimation (0 to 4) of the infected leaves. The existence of synergism between the active components was calculated according to the Abbott Equation. [formula]
(§3) a=% control b the β-arninobutyric acid.
(§4) b=% control by the second component.
(§5) and where the synergism factor. SF is calculated thusly [formula]

[2] = tested on: powdery mildew in wheat; experiment: Control of powdery mildew on potted wheat plants in growth chamber; parameters: ED90: unit not given beside the values; conditions: for Observed Control (%): wheat
Procedure: as §1, §2, §3, §4, §5

[3] = tested on: powdery mildew in barley; experiment: Control of powdery mildew on potted barley plants in growth chamber
Procedure: as §1, §2, §3, §4, §5

Fc1ccc([C@]2(Cn3cncn3)O[C@H]2c2ccccc2Cl)cc1 (racemic) [Epoxiconazole, epoxiconazole]
ED90 ([1]; cucumber (Table 9)): 5.5 | Observed Control (%) ([1]; Epoxiconazole 2.5 ppm alone): 60% | Observed Control (%) ([1]; Epoxiconazole 5 ppm alone): 96% | Observed Control (%) ([1]; Epoxiconazole 10 ppm alone): 96% | Observed Control (%) ([1]; Epoxiconazole 20 ppm alone): 100% | ED90 ([2]; wheat (Table 6)): 0.5 | Observed Control (%) ([2]; Epoxiconazole 0.15 ppm alone): 25% | Observed Control (%) ([2]; Epoxiconazole 0.6 ppm alone): 98% | Observed Control (%) ([2]; Epoxiconazole 2.5 ppm alone): 100% | Observed Control (%) ([2]; Epoxiconazole 10 ppm alone): 100%

CC(C)(C)C(O)(CCc1ccc(Cl)cc1)Cn1cncn1 (stereo not shown) [Tebuconazole, tebuconazole]
ED90 ([1]; cucumber (Table 8)): 14 | Observed Control (%) ([1]; Tebuconazole 2.5 ppm alone): 0% | Observed Control (%) ([1]; Tebuconazole 5 ppm alone): 80% | Observed Control (%) ([1]; Tebuconazole 10 ppm alone): 80% | Observed Control (%) ([1]; Tebuconazole 20 ppm alone): 92% | ED90 ([2]; wheat (Table 5)): 1.0 | Observed Control (%) ([2]; Tebuconazole 0.15 ppm alone): 25% | Observed Control (%) ([2]; Tebuconazole 0.6 ppm alone): 63% | Observed Control (%) ([2]; Tebuconazole 2.5 ppm alone): 100% | Observed Control (%) ([2]; Tebuconazole 10 ppm alone): 100%

CC(C)(C)C(O)C(Oc1ccc(Cl)cc1)n1cncn1 (stereo not shown) [Triadimenol, triadimenol]
ED90 ([1]; cucumber (Table 10)): 9.4 | Observed Control (%) ([1]; Triadimenol 2.5 ppm alone): 60% | Observed Control (%) ([1]; Triadimenol 5 ppm alone): 88% | Observed Control (%) ([1]; Triadimenol 10 ppm alone): 96% | Observed Control (%) ([1]; Triadimenol 20 ppm alone): 96% | ED90 ([2]; wheat (Table 7)): 1.0 | Observed Control (%) ([2]; Triadimenol 0.15 ppm alone): 25% | Observed Control (%) ([2]; Triadimenol 0.6 ppm alone): 98% | Observed Control (%) ([2]; Triadimenol 2.5 ppm alone): 100% | Observed Control (%) ([2]; Triadimenol 10 ppm alone): 100%

CCCN(CCOc1c(Cl)cc(Cl)cc1Cl)C(=O)n1ccnc1 [Prochloraz, prochloraz]
Observed Control (%) ([3]; Prochloraz 1.25 ppm alone): 43% | Observed Control (%) ([3]; Prochloraz 5 ppm alone): 67% | Observed Control (%) ([3]; Prochloraz 10 ppm alone): 74% | Observed Control (%) ([2]; Prochloraz 1.25 ppm alone): 33% | Observed Control (%) ([2]; Prochloraz 5 ppm alone): 42% | Observed Control (%) ([2]; Prochloraz 10 ppm alone): 52%

CC(N)CC(=O)O (stereo not drawn) [β-Aminobutyric acid, β-aminobutyric acid]
Observed Control (%) ([3]; BABA 16 ppm alone (Table 3)): 0% | Observed Control (%) ([3]; BABA 62 ppm alone (Table 3)): 50% | Observed Control (%) ([3]; BABA 125 ppm alone (Table 1)): 14% | Observed Control (%) ([3]; BABA 250 ppm alone (Table 1)): 14% | Observed Control (%) ([3]; BABA 250 ppm alone (Table 3)): 38% | Observed Control (%) ([3]; BABA 500 ppm alone (Table 1)): 14% | Observed Control (%) ([3]; BABA 1000 ppm alone (Table 1)): 14% | Observed Control (%) ([3]; BABA 1000 ppm alone (Table 3)): 70% | ED90 ([2]; wheat (Table 5)): 684 | ED90 ([2]; wheat (Table 6)): 684 | ED90 ([2]; wheat (Table 7)): 684 | Observed Control (%) ([2]; BABA 16 ppm alone (Table 4)): 0% | Observed Control (%) ([2]; BABA 62 ppm alone (Table 4)): 8% | Observed Control (%) ([2]; BABA 125 ppm alone (Table 2)): 8% | Observed Control (%) ([2]; BABA 125 ppm alone (Table 5)): 13% | Observed Control (%) ([2]; BABA 125 ppm alone (Table 6)): 13% | Observed Control (%) ([2]; BABA 125 ppm alone (Table 7)): 13% | Observed Control (%) ([2]; BABA 250 ppm alone (Table 2)): 8% | Observed Control (%) ([2]; BABA 250 ppm alone (Table 4)): 17% | Observed Control (%) ([2]; BABA 250 ppm alone (Table 5)): 25% | Observed Control (%) ([2]; BABA 250 ppm alone (Table 6)): 25% | Observed Control (%) ([2]; BABA 250 ppm alone (Table 7)): 25% | Observed Control (%) ([2]; BABA 500 ppm alone (Table 2)): 8% | Observed Control (%) ([2]; BABA 500 ppm alone (Table 5)): 63% | Observed Control (%) ([2]; BABA 500 ppm alone (Table 6)): 63% | Observed Control (%) ([2]; BABA 500 ppm alone (Table 7)): 63% | Observed Control (%) ([2]; BABA 1000 ppm alone (Table 2)): 17% | Observed Control (%) ([2]; BABA 1000 ppm alone (Table 4)): 33% | Observed Control (%) ([2]; BABA 1000 ppm alone (Table 5)): 100% | Observed Control (%) ([2]; BABA 1000 ppm alone (Table 6)): 100% | Observed Control (%) ([2]; BABA 1000 ppm alone (Table 7)): 100%

CCCC1COC(Cn2cncn2)(c2ccc(Cl)cc2Cl)O1 (stereo not shown) [Propiconazole, propiconazole]
Observed Control (%) ([3]; Propiconazole 0.5 ppm alone): 75% | Observed Control (%) ([3]; Propiconazole 1 ppm alone): 88% | Observed Control (%) ([3]; Propiconazole 2 ppm alone): 94% | Observed Control (%) ([2]; Propiconazole 0.5 ppm alone): 25% | Observed Control (%) ([2]; Propiconazole 1 ppm alone): 50% | Observed Control (%) ([2]; Propiconazole 2 ppm alone): 83%
